From patent US20230203043A1, “NOVEL IMIDAZOPYRAZINE DERIVATIVES” (Hoffmann-La Roche Inc., priority 2020, published 2023)
Where a name gives a salt, the structure may show the parent alone.

Each molecule was assayed on Acinetobacter baumannii ATCC17961 (assay: Antimicrobial susceptibility testing: 90% growth inhibitory concentration (IC90) determination in Iso-Sensitest broth, OD600 growth). Conditions: Acinetobacter baumannii, ATCC17961, 16 h, read-out: A. baumannii ATCC 17961 IC90 (uM), strain ATCC 17961, OD600 growth over 16 h.
Type: cell-based
Method in brief: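 OD600 read every 20 min for 16 h at 35±2° C; inhibition taken in log phase to derive IC90. Twofold, 10-point dilutions (e.g. 50–0.097 μM final), inoculum ~5×10^(5) CFU/ml.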

Row | SMILES | IC90 [µM]
1 | Cc1cc(Nc2nccn3c(-c4cn(CC#N)nc4C(F)(F)F)cnc23)ccc1C(=O)NCC(=O)NCCN [Example 760, N-[2-(2-aminoethylamino)-2-oxo-ethyl]-4-[[3-[1-(cyanomethyl)-3-(trifluoromethyl)pyrazol-4-yl]imidazo[1,2-a]pyrazin-8-yl]amino]-2-methyl-benzamide formate] | 0.718
2 | Cc1cc(Nc2nccn3c(-c4cn(CC#N)nc4C(F)(F)F)cnc23)ccc1C(=O)N[C@H](C)C(=O)N1CC[C@@H](N)C1 [Example 761, N-[(1R)-2-[(3R)-3-aminopyrrolidin-1-yl]-1-methyl-2-oxo-ethyl]-4-[[3-[1-(cyanomethyl)-3-(trifluoromethyl)pyrazol-4-yl]imidazo[1,2-a]pyrazin-8-yl]amino]-2-methyl-b enzamide formate] | 0.721
3 | CCc1cc(Nc2nccn3c(-c4cn(CCF)nc4C(F)F)cnc23)ccc1C(=O)N1CCN(C(=O)C2CCNCC2)CC1 [Example 770, (4-(4-((3-(3-(difluoromethyl)-1-(2-fluoroethyl)-1H-pyrazol-4-yl)imidazo[1,2-a]pyrazin-8-yl)amino)-2-ethylbenzoyl)piperazin-1-yl)(piperidin-4-yl)methanone formate] | 0.929
4 | CCc1cc(Nc2nccn3c(-c4cn(CC#N)nc4-c4ccccc4)cnc23)ccc1C(=O)NCCOCCN [Example 781, N-[2-(2-aminoethoxy)ethyl]-4-[[3-[1-(cyanomethyl)-3-phenyl-pyrazol-4-yl]imidazo[1,2-a]pyrazin-8-yl]amino]-2-ethyl-benzamide formate] | 1.09

Same assay, conditions: Acinetobacter baumannii, ATCC17961, 16 h, strain ATCC 17961, OD600 growth over 16 h, read-out: A. baumannii ATCC 17961 IC90

Row | SMILES | IC90 [µM]
5 | CCc1cc(Nc2nccn3c(-c4c[nH]nc4C(F)(F)F)cnc23)ccc1C(=O)NCCCNC(=O)[C@H](C)NC(=O)C(F)(F)F [Example 759, (S)-2-ethyl-N-(3-(2-(2,2,2-trifluoroacetamido)propanamido)propyl)-4-((3-(3-(trifluoromethyl)-1H-pyrazol-4-yl)imidazo[1,2-a]pyrazin-8-yl)amino) benzamide] | 0.693
6 | CCc1cc(Nc2nccn3c(-c4c[nH]nc4C(F)(F)F)cnc23)ccc1C(=O)N[C@H](C)CNC(=O)[C@@H]1CCCN1 [Example 762, (S)-N-((R)-2-(2-ethyl-4-((3-(3-(trifluoromethyl)-1H-pyrazol-4-yl)imidazo[1,2-a]pyrazin-8-yl)amino)benzamido)propyl) pyrrolidine-2-carboxamide] | 0.722
7 | O=C(c1ccc(Nc2nccn3c(-c4cn(C(F)F)nc4C(F)(F)F)cnc23)cc1Cl)N1CC2(C1)CN(C(=O)[C@@H]1CCCN1)C2 [Example 763, (S)-(2-chloro-4-((3-(1-(difluoromethyl)-3-(trifluoromethyl)-1H-pyrazol-4-yl)imidazo[1,2-a]pyrazin-8-yl)amino)phenyl)(6-prolyl-2,6-diazaspiro[3.3]heptan-2-yl)methanone] | 0.75
8 | CCc1cc(Nc2nccn3c(-c4cn(CC(F)F)nc4C(F)F)cnc23)ccc1C(=O)N1CCN(C(=O)C2(O)CCNCC2)CC1 [Example 764, (4-(4-((3-(1-(2,2-difluoroethyl)-3-(difluoromethyl)-1H-pyrazol-4-yl)imidazo[1,2-a]pyrazin-8-yl)amino)-2-ethylbenzoyl)piperazin-1-yl)(4-hydroxypiperidin-4-yl)methanone] | 0.809
9 | CCc1cc(Nc2nccn3c(-c4cn(CC#N)nc4C(F)(F)F)cnc23)ccc1C(=O)NCC(=O)NCCN [Example 765, N-[2-(2-aminoethylamino)-2-oxo-ethyl]-4-[[3-[1-(cyanomethyl)-3-(trifluoromethyl)pyrazol-4-yl]imidazo[1,2-a]pyrazin-8-yl]amino]-2-ethyl-benzamide] | 0.895
10 | CCc1cc(Nc2nccn3c(-c4cn(CC(F)F)nc4C(F)F)cnc23)ccc1C(=O)N1CCN(C(=O)CN)CC1 [Example 766, 2-amino-1-(4-(4-((3-(1-(2,2-difluoroethyl)-3-(difluoromethyl)-1H-pyrazol-4-yl)imidazo[1,2-a]pyrazin-8-yl)amino)-2-ethylbenzoyl)piperazin-1-yl)ethan-1-one] | 0.903
11 | CCc1cc(Nc2nccn3c(-c4cn(COC)nc4C(F)F)cnc23)ccc1C(=O)N1CCN(C(=O)[C@H](C)N)CC1 [Example 767, (S)-2-amino-1-(4-(4-((3-(3-(difluoromethyl)-1-(methoxymethyl)-1H-pyrazol-4-yl)imidazo[1,2-a]pyrazin-8-yl)amino)-2-ethylbenzoyl)piperazin-1-yl)propan-1-one] | 0.904
12 | CCc1cc(Nc2nccn3c(-c4cn(CC(F)F)nc4C(F)F)cnc23)ccc1C(=O)N1CCN(C(=O)[C@H](N)C(C)C)CC1 [Example 768, (R)-2-amino-1-(4-(4-((3-(1-(2,2-difluoroethyl)-3-(difluoromethyl)-1H-pyrazol-4-yl)imidazo[1,2-a]pyrazin-8-yl)amino)-2-ethylbenzoyl)piperazin-1-yl)-3-methylbutan-1-one] | 0.916
13 | Cc1cc(Nc2nccn3c(-c4cn(CC#N)nc4C(F)(F)F)cnc23)cc(F)c1C(=O)N[C@H](C)CNC(=O)[C@@H]1C[C@@H](O)CN1 [Example 769, (2S,4R)-N-((R)-2-(4-(3-(1-(cyanomethyl)-3-(trifluoromethyl)-1H-pyrazol-4-yl)imidazo[1,2-a]pyrazin-8-yl)amino)-2-fluoro-6-methylbenzamido)propyl)-4-hydroxypyrrolidine-2-carboxamide formate] | 0.928
14 | CCc1cc(Nc2nccn3c(-c4cn(COC)nc4C(F)F)cnc23)ccc1C(=O)N1CCN(C(=O)CN)CC1 [Example 771, 2-amino-1-(4-(4-((3-(3-(difluoromethyl)-1-(methoxymethyl)-1H-pyrazol-4-yl)imidazo[1,2-a]pyrazin-8-yl)amino)-2-ethylbenzoyl)piperazin-1-yl)ethan-1-one] | 0.953
15 | CCc1cc(Nc2nccn3c(-c4c[nH]nc4C(F)(F)F)cnc23)ccc1C(=O)NCCOCCN1CCOCC1 [Example 772, 2-ethyl-N-(2-(2-morpholinoethoxy)ethyl)-4-((3-(3-(trifluoromethyl)-1H-pyrazol-4-yl)imidazo[1,2-a]pyrazin-8-yl)amino)benzamide] | 0.968
16 | C#CCn1cc(-c2cnc3c(Nc4ccc(C(=O)N5CCN(C(=O)[C@H](N)C(C)C)CC5)c(CC)c4)nccn23)c(C(F)F)n1 [Example 773, (R)-2-amino-1-(4-(4-((3-(3-(difluoromethyl)-1-(prop-2-yn-1-yl)-1H-pyrazol-4-yl)imidazo[1,2-a]pyrazin-8-yl)amino)-2-ethylbenzoyl)piperazin-1-yl)-3-methylbutan-1-one] | 0.978
17 | C=CCn1cc(-c2cnc3c(Nc4ccc(C(=O)N5CCN(C(=O)[C@@H]6C[C@@H](O)CN6)CC5)c(CC)c4)nccn23)c(C(F)F)n1 [Example 774, (4-(4-((3-(1-allyl-3-(difluoromethyl)-1H-pyrazol-4-yl)imidazo[1,2-a]pyrazin-8-yl)amino)-2-ethylbenzoyl)piperazin-1-yl)((2S,4R)-4-hydroxypyrrolidin-2-yl)methanone] | 0.986
18 | CCc1cc(Nc2nccn3c(-c4cn(CC(F)F)nc4C(F)F)cnc23)ccc1C(=O)N1CCN(C(=O)[C@H](C)N)CC1 [Example 775, (S)-2-amino-1-(4-(4-((3-(1-(2,2-difluoroethyl)-3-(difluoromethyl)-1H-pyrazol-4-yl)imidazo[1,2-a]pyrazin-8-yl)amino)-2-ethylbenzoyl)piperazin-1-yl)propan-1-one] | 0.988
19 | CCc1cc(Nc2nccn3c(-c4c[nH]nc4C(F)(F)F)cnc23)ccc1C(=O)NCC1CC1N (stereo not shown) [Example 776, N-((2-aminocyclopropyl)methyl)-2-ethyl-4-((3-(3-(trifluoromethyl)-1H-pyrazol-4-yl)imidazo [1,2-a]pyrazin-8-yl)amino) benzamide formate] | 1.01
20 | CCc1cc(Nc2nccn3c(-c4cn(CC(F)F)nc4C(F)F)cnc23)ccc1C(=O)N1CCN(C(=O)[C@@H](C)N)CC1 [Example 777, (R)-2-amino-1-(4-(4-((3-(1-(2,2-difluoroethyl)-3-(difluoromethyl)-1H-pyrazol-4-yl)imidazo[1,2-a]pyrazin-8-yl)amino)-2-ethylbenzoyl)piperazin-1-yl)propan-1-one] | 1.02
21 | CCc1cc(Nc2nccn3c(-c4cn(COC)nc4C(F)F)cnc23)ccc1C(=O)N1CCN(C(=O)[C@@H](C)N)CC1 [Example 778, (R)-2-amino-1-(4-(4-((3-(3-(difluoromethyl)-1-(methoxymethyl)-1H-pyrazol-4-yl)imidazo[1,2-a]pyrazin-8-yl)amino)-2-ethylbenzoyl)piperazin-1-yl)propan-1-one] | 1.03
22 | CCc1cc(Nc2nccn3c(-c4cn(CCF)nc4C(F)F)cnc23)ccc1C(=O)N1CCN(C(=O)[C@H](C)N)CC1 [Example 779, (S)-2-amino-1-(4-(4-((3-(3-(difluoromethyl)-1-(2-fluoroethyl)-1H-pyrazol-4-yl)imidazo[1,2-a]pyrazin-8-yl)amino)-2-ethylbenzoyl)piperazin-1-yl)propan-1-one] | 1.03
23 | Cc1cc(Nc2nccn3c(-c4cn(CC#N)nc4C(F)(F)F)cnc23)ccc1C(=O)NCC(=O)N[C@H]1CCNC1 [Example 780, 4-[[3-[1-(cyanomethyl)-3-(trifluoromethyl)pyrazol-4-yl]imidazo[1,2-a]pyrazin-8-yl]amino]-2-methyl-N-[2-oxo-2-[[(3S)-pyrrolidin-3-yl]amino]ethyl] benzamide formate] | 1.06
24 | CCc1cc(Nc2nccn3c(-c4c[nH]nc4C(F)(F)F)cnc23)ccc1C(=O)N[C@H](C)CNC(=O)[C@@H]1C[C@@H](O)CN1 [Example 782, (2S,4R)-N-((R)-2-(2-ethyl-4-((3-(3-(trifluoromethyl)-1H-pyrazol-4-yl)imidazo[1,2-a]pyrazin-8-yl)amino)benzamido)propyl)-4-hydroxypyrrolidine-2-carboxamide] | 1.15
25 | C#CCNCCCCNC(=O)c1c(C)cc(Nc2nccn3c(-c4c[nH]nc4C(F)(F)F)cnc23)cc1F [Example 783, 2-fluoro-6-methyl-N-(4-(prop-2-yn-1-ylamino)butyl)-4-((3-(3-(trifluoromethyl)-1H-pyrazol-4-yl)imidazo[1,2-a]pyrazin-8-yl)amino)benzamide] | 1.21
